# From US20090105206A1, “Copper Melphalan And Copper Tegafur As Anti-Tumor Agents” (priority 2004, published 2009)
# Several values for one entry are separate records, joined by “and”; a condition that tells them apart may be missing. Identical values can stand only once.
# Test system: murine renal cell carcinoma (RENCA) tumor cells applied orthotopically
# Experiment: Example 5: orthotopic RENCA model, late treatment from Day 10
# Format: in vivo, Balb/c mouse
# Conditions: for Kidney weight / Lung weight / Number of intestinal lymph node metastases / Number of lung metastases (late treatment day 10-14) / Kidney volume: day 18, individual animals; for Vessel density, later start of treatment day 10-14: individual sections
# Protocol: The tests were carried out on a murine renal cell carcinoma model (RENCA) of the Balb/c mouse. The tumor cells were applied orthotopically into the left-hand renal capsule of syngenic mice. The effect of the treatment carried out on a primary tumor (in the implanted kidney), metastases (predominantly in the lungs, spleen and intestinal lymph nodes) and vessel density were investigated.
# After anesthesia by means of isoflurane narcosis (O2— flow approx. 2.0 l with 0.5-1.5% isoflurane) a small incision was made in the mouse's left flank. The kidney was prepared and presented free from the peritoneum. A 27 G needle was introduced via the lower kidney pole through to below the renal capsule with visual inspection, and […] in 70 μl aliquots respectively applied once. The occurrence of a visible liquid-filled blister between kidney parenchyma and renal capsule and the discoloration of the kidneys were regarded as criteria for successful application. The kidney was subsequently reset and the incision into the abdominal wall closed by means of fascia stitches and cutaneous stitches with absorbable stitching material. Five test groups with ten animals respectively were formed. Group 1 negative control, group 2 positive control melphalan (Glaxo), group 3 and 4 MOC melphalan 2.5 mg/kg and 5 mg/kg. In the case of group 5 an antiangiogenically effective substance was applied as the positive control. The start of treatment was fixed for day 1 post op. for Cu(melphalan)2. Treatment was carried out daily up to day seven (see treatment model). The test was ended after 19 days since, owing to their size, the control tumors required termination for ethical reasons.
# After selecting the animals the tissues to be examined were quickly transferred into liquid nitrogen and then frozen at −80° C. 5-10 μm thick sections were prepared from the tissue parts. The preparations were immunohistochemically dyed with an anti-CD31 antibody (Pecam-1) and the number of vessels in the control and treatment groups counted. Two sections of each tumor with three areas respectively were used for counting the vessels.
# The study report matches that of Example 4, differing only in terms of treatment intervals and dose groups. Four test groups with ten animals respectively were formed. Group 1 negative control, group 2 positive control melphalan (Glaxo), groups 3 and 4 Cu(melphalan)2 5 mg/kg and 7.5 mg/kg. The start of treatment was fixed for day 10 post op. for all groups. The intention was for daily treatment from day 10 until day 17 (see treatment model). Owing to toxicities the treatment period was reduced to day 10-14. After 18 days the test was ended since, owing to their size, the control tumors required termination for ethical reasons.
# • The implantation day was counted as day 0. • Duration of the test 18 days. • Number of animals at beginning of test 40; no animals died during the op.
# [1] = Cu(melphalan)2 8.8 μmol/kg (5 mg/kg) i.p. Day 10-14
# [2] = Cu(melphalan)2 13.2 μmol/kg (7.5 mg/kg/d) i.p. Day 10-14
compound,measurement,setting,value
N[C@@H](Cc1ccc(N(CCCl)CCCl)cc1)C(=O)[O-].N[C@@H](Cc1ccc(N(CCCl)CCCl)cc1)C(=O)[O-].O.O.[Cu+2] [Cu(melphalan)2],Kidney weight,[1],1.70 gr and 1.78 gr (2×) and 1.88 gr and 1.23 gr and 0.75 gr and 1.56 gr
same,Lung weight,[1],0.11 gr (2×) and 0.14 gr and 0.15 gr and 0.13 gr (2×) and 0.21 gr
same,Number of intestinal lymph node metastases,[1],20 and 40 and 36 and 12 and 64 and 51 and 75
same,Number of lung metastases (late treatment day 10-14),[1],28 and 0 (2×) and 21 and 345 and 431 and 750
same,"Vessel density, later start of treatment day 10-14",[1],44 (2×) and 38 and 34 and 56 (2×) and 46 and 26 and 51 and 72 and 25 and 35 and 40 and 31
same,Kidney volume,"Cu(melphalan)2 8.8 μmol/kg (5 mg/kg) i.p. from Day 10 (planned 10-17, reduced to 10-14)",3.12 cm^3 and 2.60 cm^3 and 2.63 cm^3 and 2.08 cm^3 and 2.90 cm^3 and 1.96 cm^3 and 2.76 cm^3
same,Kidney weight,[2],1.37 gr and 2.39 gr and 0.26 gr and 1.90 gr and 1.05 gr and 0.27 gr and 1.92 gr and 0.46 gr and 2.50 gr and 0.74 gr
same,Lung weight,[2],0.11 gr and 0.13 gr (2×) and 0.10 gr
same,Number of intestinal lymph node metastases,[2],0
same,Number of lung metastases (late treatment day 10-14),[2],0 (4×) and 3 and 77 and 750 and 300 and 4 and 10
same,"Vessel density, later start of treatment day 10-14",[2],35 (2×) and 52 and 58 and 43 and 48 and 65 and 53
same,Kidney volume,"Cu(melphalan)2 13.2 μmol/kg (7.5 mg/kg/d) i.p. from Day 10 (planned 10-17, reduced to 10-14)",1.96 cm^3 and 3.08 cm^3 and 0.60 cm^3 and 2.60 cm^3 and 1.98 cm^3 and 0.91 cm^3 and 3.06 cm^3 and 1.22 cm^3 and 3.33 cm^3 and 1.68 cm^3
same,antiangiogenic effect (vessel density),"dose of 8.8 μmol/kg, Day 10-14",significantly antiangiogenic
same,"anti-metastatic effect, lung metastases and lymph node metastases","dose of 13.2 μmol/kg, Day 10-14",significant anti-metastatic effect
same,anti-tumoral effect against the primary tumor,"dose of both 8.8 μmol/kg and 13.2 μmol/kg, Day 10-14",significant anti-tumoral effect
